Measured values: patent US20230054194A1, “Methods of Treating Cancer” (ARIAGEN, INC., priority 2018, published 2023)

Columns and labels:
MC38 = MC38 subcutaneous syngeneic colon cancer mouse model (Study 1), tumor growth inhibition; format: in vivo, mouse (C57BL/6)
Description: (§1) In this example, the in vivo anti-tumor efficacy of ARI-001, ARI-002, ARI-003, and ARI-143 and their combinations with an anti-PD-1 antibody was evaluated using a panel of twelve subcutaneous syngeneic mouse tumor models.
(§2) Eleven subcutaneous syngeneic mouse tumor models were generated by innoculating female BALB/C or C57BL/6 mice with cancer cells at their right lower or right front flank followed by randomization as detailed in Table 4 below.
(§3) A solution of a rat monoclonal anti-mouse PD-1 antibody (isotype IgG2a, κ) at a concentration of 6.61 mg/ml was obtained from BioXcell (InVivoMAb anti-mouse PD-1 (CD279), Clone RMP1-14, Cat #BE0146)) and store at 4° C. The antibody solution was diluted with PBS to obtain a 1 mg/ml dosing solution.
(§4) ARI-001, ARI-002, and ARI-003 powder was stored at −20° C. The powder of each compound was dissolved in DMSO to obtain dosing solutions at 106.7, 80, and 53.33 mg/ml for administration to mice at 160, 120, and 80 mg/kg, respectively. ARI-143 was similarly prepared.
(§5) Twelve studies using the twelve subcutaneous syngeneic mouse tumor models were performed. In each study, 80 mice were enrolled and randomly allocated to eight different study groups, with 10 mice in each study group. The mean tumor size at randomization was approximately 80-120 mm^3 (around 100 mm^3). Randomization was performed based on “Matched distribution” randomization method (StudyDirector™ software, version 3.1.399.19). […] All the drugs and vehicle controls were injected to the mice intraperitoneally.
(§6) After tumor cell inoculation, the animals were checked daily for morbidity and mortality. At the time of routine monitoring, the animals were checked for any effects of tumor growth and treatments on behavior such as mobility, food and water consumption, body weight gain/loss (body weights were measured twice or three times per week after randomization), and any other abnormalities. Mortality and observed clinical signs were recorded for individual animals. Tumor volumes were measured twice or three times weekly after randomization in two dimensions using a caliper, and the volume was expressed in mm^3 using the formula: […]
(§7) where V is tumor volume, L is tumor length (the longest tumor dimension) and W is tumor width (the longest tumor dimension perpendicular to L).
(§8) The study was terminated when the mean tumor volume (MTV) in the vehicle group reached a value of 2,000 mm^3. Tumor growth inhibition (TGI) is an indication of antitumor activity, and expressed as: […]
(§9) where T and C are the MTV (or weight) of the treated and control groups, respectively, on a given day. Statistical analysis of the difference in MTV among the groups was conducted using the data collected on the day when the MTV of the vehicle group reached the humane endpoints, so that TGI could be derived for all or most mice enrolled in the study.
(§10) Statistical analysis of differences in MTV among the groups was conducted by Independent-Samples T Test using the data collected. All data were analyzed with SPSS (Statistical Product and Service Solutions) version 18.0 (IBM, Armonk, N.Y., U.S.). P-values were rounded to three decimal places, with the exception that raw P-values less than 0.001 were stated as P<0.001. All tests were two-sided. P<0.05 was considered to be statistically significant.
FIG. 60 is a graph showing the mean tumor volume on different study days in the study groups as indicated according to Study 1 (MC38). The study end day was Day 26.

EMT-6 = EMT-6 subcutaneous syngeneic breast cancer mouse model (Study 2 and Study 12), tumor growth inhibition; format: in vivo, mouse (BALB/C); settings: EMT-6 syngeneic breast cancer model
Description: as §1, §2, §3, §4, §5, §6, §7, §8, §9, §10
FIG. 61 is a graph showing the mean tumor volume on different study days in the study groups as indicated according to Study 2 (EMT-6). The study end day was Day 27.

Pan02 = Pan02 subcutaneous syngeneic pancreatic cancer mouse model (Study 3), tumor growth inhibition; format: in vivo, mouse (C57BL/6)
Description: as §1, §2, §3, §4, §5, §6, §7, §8, §9, §10
FIG. 62 is a graph showing the mean tumor volume on different study days in the study groups as indicated according to Study 3 (Pan02). The study end day was Day 32.

CT26 = assay: CT-26 subcutaneous syngeneic colon cancer mouse model (Study 4), tumor growth inhibition; format: in vivo, mouse (BALB/C); settings: CT-26 model, i.p.; ARI compounds 160 mg/kg QD × 15 doses, Anti-PD-1 10 BIW × 5 doses; study end day Day 23
Description: as §1, §2, §3, §4, §5, §6, §7, §8, §9, §10
FIG. 63 is a graph showing the mean tumor volume on different study days in the study groups as indicated according to Study 4 (CT-26). The study end day was Day 23.

A20 = A20 subcutaneous syngeneic lymphoma mouse model (Study 5), tumor growth inhibition; format: in vivo, mouse (BALB/C); settings: A20 model, i.p.; ARI compounds 160 mg/kg QD × 14 doses, Anti-PD-1 10 BIW × 4 doses; study end day Day 26
Description: as §1, §2, §3, §4, §5, §6, §7, §8, §9, §10
FIG. 64 is a graph showing the mean tumor volume on different study days in the study groups as indicated according to Study 5 (A20). The study end day was Day 26.

LL/2 = LL/2 subcutaneous syngeneic lung cancer mouse model (Study 6), tumor growth inhibition; format: in vivo, mouse (C57BL/6)
Description: as §1, §2, §3, §4, §5, §6, §7, §8, §9, §10
FIG. 65 is a graph showing the mean tumor volume on different study days in the study groups as indicated according to Study 6 (LL/2). The study end day was Day 32.

RM-1 = RM-1 subcutaneous syngeneic prostate cancer mouse model (Study 7), tumor growth inhibition; format: in vivo, mouse (C57BL/6); settings: RM-1 model, study end day Day 19
Description: as §1, §2, §3, §4, §5, §6, §7, §8, §9, §10
FIG. 66 is a graph showing the mean tumor volume on different study days in the study groups as indicated according to Study 7 (RM-1). The study end day was Day 19.

Renca = Renca subcutaneous syngeneic kidney cancer mouse model (Study 8), tumor growth inhibition; format: in vivo, mouse (BALB/C)
Description: as §1, §2, §3, §4, §5, §6, §7, §8, §9, §10
FIG. 67 is a graph showing the mean tumor volume on different study days in the study groups as indicated according to Study 8 (Renca). The study end day was Day 28.

Hepa1-6 = Hepa1-6 subcutaneous syngeneic liver cancer mouse model (Study 9), tumor growth inhibition; format: in vivo, mouse (C57BL/6)
Description: as §1, §2, §3, §4, §5, §6, §7, §8, §9, §10
FIG. 68 is a graph showing the mean tumor volume on different study days in the study groups as indicated according to Study 9 (Hepal-6). The study end day was Day 26.

B16F10 = B16F10 subcutaneous syngeneic melanoma mouse model (Study 10), tumor growth inhibition; format: in vivo, mouse (C57BL/6)
Description: as §1, §2, §3, §4, §5, §6, §7, §8, §9, §10
FIG. 69 is a graph showing the mean tumor volume on different study days in the study groups as indicated according to Study 10 (B16F10). The study end day was Day 19.

H22 = H22 subcutaneous syngeneic liver cancer mouse model (Study 11), tumor growth inhibition; format: in vivo, mouse (BALB/C)
Description: as §1, §2, §3, §4, §5, §6, §7, §8, §9, §10
FIG. 70 is a graph showing the mean tumor volume on different study days in the study groups as indicated according to Study 11 (H22). The study end day was Day 18.

[1] = MC38 model, i.p., ARI compounds 160 mg/kg QD × 17 doses, Anti-PD-1 10 BIW × 5 doses, study end day Day 26
[2] = Pan02 model, i.p., ARI compounds 160 mg/kg QD × 28 doses, Anti-PD-1 10 BIW × 8 doses, study end day Day 32
[3] = Pan02 syngeneic pancreatic cancer model

Structure (SMILES): NC(=O)c1csc(C(=O)c2c[nH]c3ccccc23)n1 [ARI-003]
- TGI(%) (MC38; [1]): 35%
- Tumor size (Mean ± SEM) (MC38; [1]): 1691.11 ± 123.57 mm^3
- anti-tumor potency of anti-PD-1 antibody combined with the compound, compared to the antibody alone or the vehicle (MC38; MC38 syngeneic colon cancer model): statistically significant increase
- anti-tumor potency of anti-PD-1 antibody combined with the compound, compared to the antibody alone or the vehicle (EMT-6): statistically significant increase
- TGI(%) (Pan02; [2]): 62%
- Tumor size (Mean ± SEM) (Pan02; [2]): 340.16 ± 49.76 mm^3
- anti-tumor potency of anti-PD-1 antibody combined with the compound, compared to the antibody alone (Pan02; [3]): statistically significant increase
- anti-tumor potency of the compound combined with anti-PD-1 antibody, compared to being used alone (Pan02; [3]): statistically significant increase
- TGI(%) (CT26): 64%
- Tumor size (Mean ± SEM) (CT26): 836.51 ± 110.61 mm^3
- TGI(%) (A20): 54%
- Tumor size (Mean ± SEM) (A20): 1206.83 ± 121.06 mm^3
- Tumor size (LL/2; LL/2 model, Mean ± SEM, study end day Day 32, in mm³): 839.79 ± 99.43
- TGI(%) (LL/2; LL/2 model, study end day Day 32): 62%
- anti-tumor potency of anti-PD-1 antibody combined with the compound, compared to the antibody alone or the vehicle (LL/2; LL/2 syngeneic lung cancer model): statistically significant increase
- Tumor size (RM-1; Mean ± SEM, in mm³): 1703.05 ± 39.79
- TGI(%) (RM-1): 43%
- Tumor size (Renca; Renca model, Mean ± SEM, study end day Day 28, in mm³): 1240.04 ± 90.09
- TGI(%) (Renca; Renca model, study end day Day 28): 42%
- anti-tumor potency of anti-PD-1 antibody combined with the compound, compared to the antibody alone (Renca; Renca syngeneic kidney cancer model): statistically significant increase
- Tumor size (Hepa1-6; Hepa1-6 model, Mean ± SEM, study end day Day 26, in mm³): 1251.31 ± 158.72
- TGI(%) (Hepa1-6; Hepa1-6 model, study end day Day 26): 23%
- anti-tumor potency of the compound combined with anti-PD-1 antibody, compared to being used alone (Hepa1-6; Hepa1-6 syngeneic liver cancer model): statistically significant increase
- Tumor size (B16F10; B16F10 model, Mean ± SEM, study end day Day 19, in mm³): 2234.18 ± 248.14
- TGI(%) (B16F10; B16F10 model, study end day Day 19): 24%
- anti-tumor potency of anti-PD-1 antibody combined with the compound, compared to the antibody alone or the vehicle (B16F10; B16F10 syngeneic melanoma model): statistically significant increase
- Tumor size (H22; H22 model, Mean ± SEM, study end day Day 18, in mm³): 1547.54 ± 100.51
- TGI(%) (H22; H22 model, study end day Day 18): 31%
- anti-tumor potency of the compound combined with anti-PD-1 antibody, compared to being used alone (H22; H22 syngeneic liver cancer model): statistically significant increase
